According to patent US12435061B2 (priority 2020, dated 2025):
Like-named read-outs stand apart in the source and are kept apart here.

What was measured:
[1] = test system: male C57BL/6J mice, AEW induced pruritus; assay: Acetone-ether-water (AEW) induced pruritus model in mice; conditions: HC-030031 4 mg/mouse SC 5 min before recording; P=0.0005 vs Vehicle2
[2] = test system: DS-Nh mice (TRPV3 Gly573Ser gain-of-function mutation); assay: Efficacy of KM-001 in DS-Nh mouse model (skin histology, dermatitis scoring); conditions: topical ointment on cheek, Day 14, KM-001 1% and 0.3%, Tacrolimus 0.1%
Protocol: Mice were identified by left ear punch. […] On Day −30, −23, −20, −14, −9, −2, 0, 3, 7, 10, 14, erythema and edema of the mice face have been scored on the right and left sides according to criteria in table 21 (Dermatitis scoring criteria).
The viability, clinical signs and behavior were monitored daily. Body weight was recorded daily. […] Mice were monitored just and 7 hours after administration. Animals in all groups were sacrificed at Day 14 by exsanguination through abdominal vena cava under isoflurane.
For skin samples, the skin at the inflammation site from both cheeks of the face were collected. For histological analyses, the skin was fixed in 4% paraformaldehyde for 24 hours. After fixation, these specimens were processed to paraffin embedding for H&E staining, MT staining and immunohistochemistry and toluidine blue staining.
Skin sections taken from facial treated area of each mouse are fixed in paraffin and stained with Hematoxylin & Eosin.

rat (r) TRPV3 = rat (r) TRPV3 (Rattus norvegicus, UniProt E9PU00); assay: Whole-cell patch clamp, rTRPV3 Phase 1 / Phase 2 currents; format: cell-based; conditions: rTRPV3 (nM) Phase 1, Phase 1 current, rat TRPV3
rat (r) TRPV3, sequence (E9PU00 1-791): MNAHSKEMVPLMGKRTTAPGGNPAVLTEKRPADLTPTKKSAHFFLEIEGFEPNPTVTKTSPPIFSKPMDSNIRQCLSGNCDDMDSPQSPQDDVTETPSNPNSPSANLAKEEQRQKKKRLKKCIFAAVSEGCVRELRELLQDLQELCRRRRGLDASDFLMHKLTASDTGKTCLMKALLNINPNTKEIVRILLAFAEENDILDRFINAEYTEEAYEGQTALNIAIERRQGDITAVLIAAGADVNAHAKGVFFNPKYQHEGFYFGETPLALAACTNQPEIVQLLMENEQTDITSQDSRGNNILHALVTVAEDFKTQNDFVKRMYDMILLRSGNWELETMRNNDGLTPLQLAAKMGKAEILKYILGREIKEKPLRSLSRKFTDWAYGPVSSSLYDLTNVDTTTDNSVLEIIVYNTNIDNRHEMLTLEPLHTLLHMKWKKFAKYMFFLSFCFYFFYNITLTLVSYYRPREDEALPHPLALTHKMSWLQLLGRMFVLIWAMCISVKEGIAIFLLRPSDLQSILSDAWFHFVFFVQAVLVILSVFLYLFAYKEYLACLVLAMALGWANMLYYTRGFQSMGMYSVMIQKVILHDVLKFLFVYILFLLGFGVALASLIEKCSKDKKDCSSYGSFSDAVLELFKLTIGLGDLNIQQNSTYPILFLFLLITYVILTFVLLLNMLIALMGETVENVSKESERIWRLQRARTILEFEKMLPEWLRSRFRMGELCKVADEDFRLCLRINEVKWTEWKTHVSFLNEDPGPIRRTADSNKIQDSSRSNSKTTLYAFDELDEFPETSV
Excerpt: Whole-cell patch clamp experiments permit the detection of currents through the TRPV3 channel in the cell line described above. A glass electrode is brought into contact with a single cell and the membrane is then ruptured, permitting control of the voltage of the cell membrane and measurement of currents flowing across the membrane using the amplifier attached to the electrode. A perfusion system permits control of the extracellular solution, including the addition of blockers and activators of the current. The current can be activated by heating this solution to 28° C. or warmer or by addition of 20 μM 2-APB to the solution.
TRPV3 cells were induced 20-48 hours, removed from growth plates, and replated at low density (to attain good single-cell physical separation) on glass coverslips for measurement. In some cases, cells were grown in low density overnight on glass coverslips. Patch clamp recordings were made in the whole-cell mode with a holding potential of −40 mV. Every 5 seconds, a voltage ramp was applied from −120 to +100 mV, 400 ms in duration. Currents elicited were quantified at −80 mV and +80 mV. The internal solution consisted of 140 mM cesium aspartate, 10 mM EGTA, 2.27 mM MgCl2, 1.91 mM CaCl2) and 10 mM HEPES, pH to 7.2 with KOH; with 50 nM calculated free […]. External solution was Ringer's solution described above. Upon addition of 2-APB or upon heating of the extraceullar solution as described above, TRPV3 current was induced only in TRPV3-expressing cells and not in parental HEK293 TREx cells. […] Removal of the stimulus caused most of the current to go away, and inhibitor addition could still inhibit this current.
In Tables 3 and 4, Phase 1 refers to Phase 1 current for human (h) TRPV3 or rat (r) TRPV3, and Phase 2 refers to Phase 2 current for human (h) TRPV3 or rat (r) TRPV3. The hTRPV3 and rTRPV3 assays were performed as described herein. hERG refers to the inhibition the human ERG (hERG) channel. NaV1.5, refers to the pore forming aL-subunit of the voltage-dependent cardiac Na(+) channel and is an integral membrane protein involved in the initiation and conduction of action potentials. hTRPV3 HAMA IC50 refers to the IC50 of TRPV3 cells stably expressed in TRex-293 cells. Solubility Ringer refers to the compounds' solubility in Ringer's solution. LM T1/2 refers to liver microsome half-lives in either rat or human liver microsomes. FLIPR IC50 refers to the IC50 of the test compounds against recombinant hTRPV3 cells.

[3] = Aqueous solubility assay in Normal Ringer Solution; conditions: Normal Ringer Solution, saline or isotonic, kinetic from dmso stock
Protocol: Following vortex and incubation for a sufficient time (e.g. 40 minutes at room temperature), solutions were filtered, quenched with acetonitrile, and analyzed by Liquid Chromotography. Solubility Limits were determined by comparison to a standard curve.

[4] = Metabolic Stability assay, human liver microsomes; format: in vitro ADME; conditions: read-out: LM T1/2 (min) human
Protocol: Metabolic Stability assay: The metabolic stability was determined by adding compound dissolved in DMSO to human or rat, liver microsomes. Briefly, assays were run with a starting concentration of 1 μM test article. The reaction was started by addition of NADPH regeneration components at 37° C. at which time an aliquot was immediately quenched in ice-cold acetonitrile/MeOH/H2O solution. Reaction mixture was incubated at 37° C. on a shaker, and additional aliquots were taken at 7, 15, 30 and 60 minutes. Following quench and centrifugation, samples were analyzed on HPLC/MS/MS.

human hERG channels = human hERG channels (Homo sapiens (Human), UniProt Q12809); assay: hERG assay (patch clamp, CHO cells); format: cell-based
human hERG channels, sequence (Q12809 whole entry): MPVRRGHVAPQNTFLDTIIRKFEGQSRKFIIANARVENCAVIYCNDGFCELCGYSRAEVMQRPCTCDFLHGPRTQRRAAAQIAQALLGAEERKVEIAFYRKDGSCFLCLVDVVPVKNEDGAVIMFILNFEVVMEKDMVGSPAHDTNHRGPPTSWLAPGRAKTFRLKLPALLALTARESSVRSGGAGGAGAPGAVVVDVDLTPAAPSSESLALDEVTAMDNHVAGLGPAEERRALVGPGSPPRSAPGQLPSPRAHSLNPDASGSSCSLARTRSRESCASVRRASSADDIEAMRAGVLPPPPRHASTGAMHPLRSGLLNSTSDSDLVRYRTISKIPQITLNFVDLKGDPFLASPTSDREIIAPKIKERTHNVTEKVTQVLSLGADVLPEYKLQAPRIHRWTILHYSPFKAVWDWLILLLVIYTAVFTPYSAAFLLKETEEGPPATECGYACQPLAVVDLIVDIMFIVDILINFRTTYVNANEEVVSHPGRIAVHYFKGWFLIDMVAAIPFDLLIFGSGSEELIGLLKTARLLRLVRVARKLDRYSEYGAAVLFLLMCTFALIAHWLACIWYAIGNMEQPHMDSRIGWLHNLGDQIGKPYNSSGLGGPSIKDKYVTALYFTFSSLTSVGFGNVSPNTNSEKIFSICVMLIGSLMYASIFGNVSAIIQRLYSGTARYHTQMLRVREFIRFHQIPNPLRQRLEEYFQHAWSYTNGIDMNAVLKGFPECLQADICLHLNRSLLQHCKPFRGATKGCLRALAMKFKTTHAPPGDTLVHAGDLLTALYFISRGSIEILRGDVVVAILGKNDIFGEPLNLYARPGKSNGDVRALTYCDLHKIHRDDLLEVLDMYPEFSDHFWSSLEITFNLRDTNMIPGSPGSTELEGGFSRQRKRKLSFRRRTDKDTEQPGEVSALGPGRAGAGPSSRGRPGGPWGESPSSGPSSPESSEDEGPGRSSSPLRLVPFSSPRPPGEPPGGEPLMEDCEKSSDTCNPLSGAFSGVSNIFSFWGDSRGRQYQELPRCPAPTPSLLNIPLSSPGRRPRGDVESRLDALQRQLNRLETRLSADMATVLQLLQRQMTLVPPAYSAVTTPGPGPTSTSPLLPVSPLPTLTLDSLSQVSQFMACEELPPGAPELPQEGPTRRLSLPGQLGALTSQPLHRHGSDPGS

hTRPV3 = hTRPV3 (Homo sapiens (Human), UniProt Q8NET8); assay: Whole-cell patch clamp, hTRPV3 Phase 1 / Phase 2 currents; format: cell-based; conditions: Phase 1 current
hTRPV3, sequence (Q8NET8 whole entry): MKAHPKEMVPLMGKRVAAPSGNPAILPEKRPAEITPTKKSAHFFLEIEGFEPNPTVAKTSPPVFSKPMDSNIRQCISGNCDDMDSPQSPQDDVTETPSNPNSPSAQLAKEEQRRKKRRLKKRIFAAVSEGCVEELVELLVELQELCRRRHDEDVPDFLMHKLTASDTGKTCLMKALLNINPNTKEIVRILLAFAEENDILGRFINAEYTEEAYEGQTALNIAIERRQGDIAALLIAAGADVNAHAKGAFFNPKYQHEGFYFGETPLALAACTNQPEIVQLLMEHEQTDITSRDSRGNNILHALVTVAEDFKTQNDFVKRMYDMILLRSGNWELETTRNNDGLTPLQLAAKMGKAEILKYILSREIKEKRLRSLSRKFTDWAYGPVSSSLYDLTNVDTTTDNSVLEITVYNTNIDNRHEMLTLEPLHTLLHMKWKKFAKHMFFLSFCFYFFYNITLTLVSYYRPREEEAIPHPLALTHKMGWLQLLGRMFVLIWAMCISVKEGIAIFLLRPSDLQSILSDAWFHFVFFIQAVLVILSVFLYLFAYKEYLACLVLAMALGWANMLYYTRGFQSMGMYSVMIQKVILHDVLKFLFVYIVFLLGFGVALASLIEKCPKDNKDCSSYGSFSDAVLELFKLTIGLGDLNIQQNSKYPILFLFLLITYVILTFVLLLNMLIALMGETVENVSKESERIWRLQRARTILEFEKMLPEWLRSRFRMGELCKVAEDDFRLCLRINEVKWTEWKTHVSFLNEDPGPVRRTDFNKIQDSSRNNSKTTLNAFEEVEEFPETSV
Procedure, shortened: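 Currents are activated by 20 μM 2-APB or by perfusate at 28 °C or warmer, in Ringer's solution, and quantified at ±80 mV.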

[5] = Metabolic Stability assay, rat liver microsomes; format: in vitro ADME; conditions: read-out: LM T1/2 (min) rat
Procedure, shortened: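 Reactions in human or rat liver microsomes at 37 °C were started with an NADPH-regenerating system, using 1 μM compound initially. Samples were taken at 0, 7, 15, 30 and 60 min, quenched in ice-cold acetonitrile/MeOH/H2O, and quantified by HPLC/MS/MS.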

[6] = set-up: species or system mice; conditions: mouse, in vivo, po
Protocol: At the beginning of the study, 3 mice were weight before compound treatment. Group of 3 mice received an increasing dose of KM-023 every 24 hours 1 mg/kg, 10 mg/kg, 30 mg/kg, 100 mg/kg, 500 mg/kg once daily, in a volume of 0.2 ml, administered orally. The mice were weighed daily before treatment.
At the end of the experiment, the mice were sacrificed with CO2.

[7] = minipig, in vivo
Protocol: To assess PK profile of escalating doses of KM-023 administered via PO and IV routes. Animal care was carried out as described above. Animals were observed daily throughout the study period.
PK samples were obtained in the following time points:
On Day 0 and Day 1—time 0, 5 min post injection, 30 min post injection, 1 h post injection, 2 h post injection, 6 h post injection, 24 h post injection (on the following day)
On Day 2, 5 min post injection, 30 min post injection, 1 h post injection, 2 h post injection, 6 h post injection
Plasma samples for PK analysis have been send to Swiss BioQuant AG, Switzerland for further processing.
Methodology used for the detection of KM-023 in minipigs plasma is described in above. In both animals dosed with test item, exposure to KM-023 was detected.

[8] = test system: SLIGRL-NH2 (PAR2 agonist peptide) induced itching in mice; assay: Efficacy of oral KM-023 in SLIGRL-NH2 itching mouse model; format: in vivo; conditions: for Decrease of number of scratches: 30 min before SLIGRL induction, 30 minutes post induction
Excerpt: The aim of this study is to evaluate the efficacy of anti-itching activity of KM-023 in SLIGRL-NH2 (SEQ ID NO: 1) mouse itching model.
Proteinase-activated receptors (PAR) are a group of G-protein coupled receptors which are activated by cleavage of their terminal sequence by serine proteinases. […] Thus, the administration of the murine PAR2 agonist peptide, SLIGRL-NH2 (SEQ ID NO: 1), is an known and acceptable model to assess anti-pruritic compounds in mice.
32 mice in good health status and corresponding to the specifications details above were included in the in vivo phase.
The animals were weighed before treatment. Induction of itching was performed on animals by intradermal administration of SLIGRL-NH2 (SEQ ID NO: 1) peptide in neck (volume about 20 μL).
Oral route was performed by oral gavage using plastic probe 30 min before induction with SLIGRL-NH2 (SEQ ID NO: 1) peptide.
Animals were placed in plexiglass red walls observation devices (for simultaneous observations of 4 mice). Red walls permitted observations of animals by the operator without the possibility for animals to see the operator. Animals were placed in observation cages before induction for 20 to 30 minutes.
Intradermal injections of SLIGRL (SEQ ID NO: 1) was performed on vigil animals in shaved neck and video recording was initiated immediately after injection for a duration of 30 minutes.
Manual image analysis was performed on recorded movies.
Scratching/itching bouts were counted on 6 time periods of 5 minutes (total of 30 min for each mouse).
The scratches were counted at predefined time intervals of 5 minutes post induction and 30 minutes post induction.

[9] = test system: SLIGRL-NH2 itching mouse model; assay: SLIGRL-NH2 itching mouse model (Example 17); format: in vivo; conditions: pre-treatment with either dose of oral KM-023
[10] = rat, in vivo
Excerpt: The rats per group for either skin or CSF sample collection contains 9 rats.
Animals were allocated randomly into the following treatment groups.
Group 1: Control—2 untreated, naïve animals for the collection of blood, skin, and CSF at the point of euthanasia.
The same 3 rats were allocated to each alternating time point of bleeding.
Samples of plasma, skin and CSF were sent to Swiss BioQuant AG, Reinach, Switzerland for further analysis.
The extravascular model was used for oral dosing. Sparse sampling option was used for plasma concentration.
The following pharmacokinetic parameters were estimated from the plasma, skin and CSF concentration versus time curve:
tmax Time to reach the maximum plasma concentration read directly from the individual plasma concentration-time curve.
Cmax Maximum plasma concentration read directly from the individual plasma concentration-time curve.
Cmax/doseCmax corrected for dose.
AUC0-t Area under the plasma concentration-time curve from time point zero to last measurable concentration. AUC0-t was calculated according to the “linear up log down” trapezoidal rule.
AUC0-8 h Area under the plasma concentration-time curve from time point zero to time point 8 h after dosing. AUC0-8 h was calculated according to the “linear up log down” trapezoidal rule.
AUC0-8 h/dose AUC0-8 h corrected for dose

## CC(C)c1ccc(NC(=O)Cn2cnc3c2c(=O)n(C)c(=O)n3C)cc1 [HC-030031]
[1]
  scratching bouts: significantly decreased
  scratching time: significantly decreased

## C=CC[C@@H]1/C=C(\C)C[C@H](C)C[C@H](OC)[C@H]2O[C@@](O)(C(=O)C(=O)N3CCCC[C@H]3C(=O)O[C@H](/C(C)=C/[C@@H]3CC[C@@H](O)[C@H](OC)C3)[C@H](C)[C@@H](O)CC1=O)[C@H](C)C[C@@H]2OC [Tacrolimus, reference compound]
[2]
  Skin pathology (H&E histology: epidermis, inflammation): only slightly improved skin pathology

## CC(C)c1ccccc1-c1ccc(C2CCN(C(=O)c3ccc(F)cn3)C2)c(CO)c1 (stereo not shown) [Compound 2-29, (5-fluoropyridin-2-yl)(3-(3-(hydroxymethyl)-2′-isopropylbiphenyl-4-yl)pyrrolidin-1-yl)methanone]
Rat (r) TRPV3
  IC50: 5.56 nM
[3]
  solubility at 40 min: > 16.6 µM
[4]
  half-life at 1 μM: 8.8 min
Human hERG channels; (M), read-out: hERG
  IC50: 7.38e-06 M
Human hERG channels; (PL), read-out: hERG (nM) (PL)
  IC50: 7.48e-06 M
hTRPV3; human TRPV3, read-out: hTRPV3 (nM) Phase 1
  IC50: 6.03 nM
hTRPV3; inward, whole-cell patch clamp, read-out: hTRPV3 Patch P1 Inwd
  IC50: < 10 nM
[5]
  half-life at 1 μM: 16.8 min

## Cc1nc(C(=O)N2CCC(c3ccc(-c4ccccc4C4CC4)cc3CO)C2)ccc1O (stereo not shown) [KM-023]
[6]
  Maximal Feasible Dose (MFD): 500 mg/kg
[7]
  KM-023 concentrations at 24 h post-dose: above 0.300 ng/mL
  abnormal clinical signs: No abnormal clinical signs were observed
  bioavailability of the KM-023 formulation: 0.2-0.8%
  blood exposure: dose dependent blood exposure
  tmax: 49.8 min
[7]; iv
  Half-time: 3.3 to 4.2 h
  apparent maximum concentration time (tmax): 5 min
[7]; iv, 1 mg/kg
  AUC0-8 h: 314 ng·h/mL
  AUC0-h: 320 ng·h/mL
  AUC0-t/dose (lower part of table, beside AUC0-h): 320 (h * ng/mL)/(mg/kg)
  AUC0-t/dose (upper part of table, beside AUC0-8 h): 314 (h * ng/mL)/(mg/kg)
  C0: 422 ng/mL
  Vz/F: 19.1 L/kg
[7]; iv, 5 mg/kg
  AUC0-8 h: 1300 ng·h/mL
  AUC0-h: 1300 ng·h/mL
  AUC0-t/dose (lower part of table, beside AUC0-h): 261 (h * ng/mL)/(mg/kg)
  AUC0-t/dose (upper part of table, beside AUC0-8 h): 260 (h * ng/mL)/(mg/kg)
  C0: 2340 ng/mL
  Vz/F: 18.2 L/kg
[7]; iv, 10 mg/kg
  AUC0-8 h: 2800 ng·h/mL
  AUC0-h: 2910 ng·h/mL
  AUC0-t/dose (lower part of table, beside AUC0-h): 291 (h * ng/mL)/(mg/kg)
  AUC0-t/dose (upper part of table, beside AUC0-8 h): 280 (h * ng/mL)/(mg/kg)
  C0: 6880 ng/mL
[7]; po
  time of maximum concentration (tmax): 5 to 30 min
[7]; po, 1 mg/kg
  AUC0-24 h: 0.442 ng·h/mL
  AUC0-t/dose: 0.442 kg·ng·h/mL/mg
  AUC0-∞: 0.596 ng·h/mL
[7]; po, 5 mg/kg
  AUC0-24 h: 1.31 ng·h/mL
  AUC0-t/dose: 0.262 kg·ng·h/mL/mg
  AUC0-∞: 2.01 ng·h/mL
[7]; po, 10 mg/kg
  AUC0-24 h: 23.2 ng·h/mL
  AUC0-t: 31.2 ng·h/mL
  AUC0-t/dose: 2.32 kg·ng·h/mL/mg
  AUC0-∞: 23.2 ng·h/mL
  AUC0-∞/dose: 3.12 kg·ng·h/mL/mg
[8]; oral KM-023 1 mg/kg group
  Decrease of number of scratches: 56.25%
[8]; oral KM-023 10 mg/kg group
  Decrease of number of scratches: 68.8%
[8]; oral pretreatment, SLIGRL induced scratch behaviour
  Anti-itching effect: anti-pruritic activity
[9]
  number of scratches observed 30 minutes post induction: decrease the number of scratches
[10]
  Dose proportionality of plasma AUC0-8 h: roughly more than dose proportional manner
[10]; po
  BBB crossing / CNS entry: does not cross BBB
  Distribution in CSF: did not distribute well in CSF
  Distribution in skin: distributed well in skin
  Systemic absorption: acceptable systemic absorption
[10]; po, 20 mg/kg
  tmax in plasma: 15 min
[10]; po, 60 mg/kg
  Exposure ratio CSF/plasma of AUC0-8 h: 0.0150-0.0162
  Exposure ratio skin/plasma of AUC0-8 h: 0.437-0.816
  tmax: 0.250
  tmax in CSF: 15 min
  tmax in plasma: 30 min
  tmax in skin: 15 min to 1-hour
